One data set concerns TZM cells. Briefly: in vitro. Particulars: Table 4; non-cytotoxic when values higher than 80 % of 1 % DMSO treated cells. The data set is classed as cell-based. As to the method:
Cytotoxicity of selected hits tested in the assay with NL4.3 infected cells was determined by MTT test. TZM cells were seeded on the previous day on 96-well plate in the density 5 x 10^3 cells per well. The tested compounds were added in different concentrations, but the DMSO concentration never exceeded 1 % DMSO. As controls were used cells treated only with 1 % DMSO (non-toxic concentration) and cells treated with 5 % DMSO (toxic concentration). 20 µl of the CellTiter 96 Aqueous One substrate (Promega) was added to the 100 µl of culture media 48 hrs after the compounds addition and the color development was quantified 4 hrs later by measuring the absorbance at 490 nm on Saphire reader. Compounds were consider non-cytotoxic (at given concentrations) when the measured values were higher than 80 % of the value of 1 % DMSO treated cells.

The next data set concerns wild type NL4.3 HIV-1. Briefly: Tissue culture infectivity test, TZM titration of supernatants from infected TZM cells. The data set is classed as cell-based. Particulars: Human immunodeficiency virus 1, TZM, read-out: tissue culture IC50 (µM). As for the experimental part:
Hits selected in the YFP-screen were further evaluated in the tissue culture experiments with cells infected with the wild type NL4.3 HIV-1. The virus for infection was obtained from co-culture of MT4 cells. The MT4 cells co-culture was synchronized for one week and then used for the infection of fresh MT 4 cells. 48 hrs post-infection was the culture supernatant harvested, cleared by the filtration through […] filter and stored in -80 °C in 1 ml aliquots. Amount of virus was quantified by enzyme-linked immuno sorbent assay (ELISA) with antibodies against HIV-1 CA (3 ng of CA/ml) and blue cell assay (1x10^5 IU/ml), which gives 3 x 10^4 IU/ng of CA.
For compounds testing the TZM cells were seeded on 96-well plate in the density 5 x 10^3 cells per well. The culture media was aspirated approx. 16 hrs later and cells were infected by the wild type NLA.3 HIV-1 by addition of 50J..il of prepared virus stock diluted with 50 µl of complete DMEM. The compounds were added twice to ensure that there are not any preassembled viruses present at the time of their addition. Compounds were first added 8 hrs post-infection and then 24 hrs later. In both cases the old culture media were replaced by 100 µl of fresh complete DMEM prior to the compounds addition. Different compounds concentrations were tested, but the DMSO concentration never exceeded 1 % DMSO. As controls were used cells treated only with 1 % DMSO and cells treated with 0,1 µM Lopinavir (HIV-1 protease inhibitor). Supernatant was harvested 24 hrs after the second compound addition, i.e. 56 hrs post-infection. Harvested supernatants were immediately titrated on the fresh TZM cells in aim to perform the infectivity assay (TZM titration), or inactivated by addition of Triton X-100 to the final concentration 0.025 % for further ELISA analysis.
TZM titration was performed on the cells seeded day before on 96-well plate in the density 5 x 10^3 cells per well. The analysis was performed for each compound concentration at three different dilutions and in duplicates. The culture media was aspired and cells were lysed 48 hrs post-infection by addition of 100 µl of SteadyGlo luciferase substrate (Promega) diluted 1 : 1 by complete DMEM. The luminescence signal was measured on Luminoskan Ascent (Thermo Labsystems) after the transfer of 80 µl of lysate to the flat bottom white polystyrene assay plates (Costar).

The target of a further data set is T1, CA (Human immunodeficiency virus type 1 group M subtype B, UniProt P12493).
T1 construct: a fusion protein of CA with glutathione-S-transferase (CA-GST)
The data set is described as follows: ALPHA screen (AlphaScreen): inhibition of CAI binding to CA. Details: species or system HIV-1. The settings on record: CAI-biotin peptide / CA-GST; compounds screened at 0.5-100 µM; read-out: α screen IC50. As for the experimental part:
The AlphaScreen experiments are performed using Perkin Elmer Enspire plate reader in white 96-well ProxiPlates and PBS supplemented with 0.05% Tween20, 2mM DTT, 2% DMSO. First, Streptavidin-coated Donor beads are used to capture the CAI-biotin peptide. In the other solution, a fusion protein of CA with glutathione-S-transferase (CA-GST) is mixed with GSH Acceptor beads. Both mixtures were incubated and then mixed together. To test the ability of prepared organic compounds to inhibit the CAI binding to CA, they are screened at concentrations between 0.5-100 µM and IC50 values are calculated from the influenced signals.
Upon illumination by laser at 680 nm, Donor beads containing the photosensitizer phthalocyanine convert ambient oxygen to an excited form of singlet oxygen ^1O2. Singlet oxygen can within its half-life of ~ 4 µs diffuse approximately 200 nm in solution. If an Acceptor bead is within that proximity, which is mostly upon CA:CAI interaction, energy is transferred from the singlet oxygen to thioxene derivates within the Acceptor and signal at 520 - 620 nm is emitted.
Background: Alpha assays give light when donor and acceptor beads are brought close together.

The structures appear in SMILES notation. Where only a bound is given, the exact number is not on record here.

Broadly, the IC50 is the point on the concentration scale where inhibition reaches its midpoint.

With `CC(=O)c1ccc(Nc2nc(-c3ccncc3)nc3ccccc23)cc1` [AMR-535], the “toxicity LC50 (µM)” value with TZM cells is reported as “non-toxic”. Further, the half-maximal inhibitory concentration (IC50) in the data set with wild type NL4.3 HIV-1 was less than 5 µM.
In the same order, the values of `CCOC(=O)c1ccccc1Nc1nc(-c2ccncc2)nc2ccccc12` [AMR-540] are “non-toxic” and more than 10 µM.
In the case of `CCOC(=O)c1cccc(Nc2nc(-c3ccncc3)nc3ccccc23)c1` [AMR-541], the “toxicity LC50 (µM)” value in the data set on TZM cells is reported as “non-toxic”. The IC50 in the data set with wild type NL4.3 HIV-1 is less than 5 µM.
In the same order, the values of `O=C(O)c1ccc(Nc2nc(-c3ccncc3)nc3ccccc23)cc1` [AMR-542] are “non-toxic” and more than 10 µM.
In the same order, the values of `N#Cc1ccc(Nc2nc(-c3ccncc3)nc3ccccc23)cc1` [AMR-549] are “non-toxic” and more than 10 µM.
In the same order, the values of `CS(=O)(=O)c1ccc(Nc2nc(-c3ccncc3)nc3ccccc23)cc1` [AMR-551] are “non-toxic” and more than 10 µM.
On to `NC(=O)c1ccc(Nc2nc(-c3ccncc3)nc3ccccc23)cc1` [AMR-556], for which, in the data set on TZM cells, the “toxicity LC50 (µM)” value was “non-toxic”. Further, in the data set with wild type NL4.3 HIV-1, the half-inhibitory concentration (IC50) is more than 10 µM.
In the same order, the values of `CNc1ccc(F)cc1Nc1nc(-c2ccncc2)nc2ccccc12` [AMR-558] are “non-toxic” and more than 10 µM.
The corresponding values for `CNc1ccc(F)cc1Nc1nc(-c2cccnc2)nc2ccccc12` [AMR-560] are “non-toxic” and approximately 12 µM.
`CC(O)c1ccc(Nc2nc(-c3ccncc3)nc3ccccc23)cc1` (centres unmarked) [AMR-566]: the “toxicity LC50 (µM)” value with TZM cells was “non-toxic”. Moreover, the IC50 in the data set on wild type NL4.3 HIV-1 is approximately 10 µM.
The corresponding values for `CSc1ccc(Nc2nc(-c3ccncc3)nc3ccccc23)cc1` [AMR-570] are “non-toxic” and approximately 10 µM.
The corresponding values for `C[S+]([O-])c1ccc(Nc2nc(-c3ccncc3)nc3ccccc23)cc1` (centres unmarked) [AMR-573] are “non-toxic” and more than 10 µM.
The corresponding values for `CCOC(=O)N1CCC(Nc2nc(-c3ccncc3)nc3ccccc23)CC1` [AMR-577] are “non-toxic” and more than 10 µM.
As to `O=[N+]([O-])c1cc(Nc2nc(-c3cccnc3)nc3ccccc23)ccc1F` [AMR.425], the IC50 at CA amounted to 7 µM. For the same compound, in the data set with TZM cells, the “toxicity LC50 (µM)” value was “non toxic”.
In the case of `Cn1nnc2cc(Nc3cc(-c4cccnc4)nc4ccccc34)ccc21` [AMR.505], at CA, the IC50 came out at 59.8 µM.
Regarding `CN(C)c1cccc(-c2nc(Nc3cc([N+](=O)[O-])ccc3F)c3ccccc3n2)c1` [AMR.508], the IC50 on CA is more than 200 µM.
The same measure, in the same setting: with `CN(C)c1cccc(-c2nc(Nc3ccc4c(c3)nnn4C)c3ccccc3n2)c1` [AMR.509] the figure was more than 200 µM; with `CN(C)c1ccc(-c2nc(Nc3cc([N+](=O)[O-])ccc3F)c3ccccc3n2)cc1` [AMR.511], more than 200 µM.
Same read-out and setting: then `CN(C)c1ccc(-c2nc(Nc3ccc4c(c3)nnn4C)c3ccccc3n2)cc1` [AMR.512], with 30.8 µM.
Turning to `O=[N+]([O-])c1ccc(Nc2ccnc(-c3cccnc3)n2)c(F)c1` [KP-34], in the data set with TZM cells, the “toxicity LC50 (µM)” value is listed as “non-toxic”. Besides, the half-inhibitory concentration (IC50) in the data set with wild type NL4.3 HIV-1 is more than 25 µM.
For `O=[N+]([O-])c1cc(Nc2ccnc(-c3cccnc3)n2)ccc1F` [KP-43], in the data set on TZM cells, the “toxicity LC50 (µM)” value was “non-toxic”.
As for `COc1cc2c(Nc3ccc([N+](=O)[O-])cc3F)nc(-c3cccnc3)nc2c(OC)c1OC` [KP-66], the “toxicity LC50 (µM)” value with TZM cells is on record as “non-toxic”. Further, the IC50 in the data set on wild type NL4.3 HIV-1 was approximately 5 µM.
On to `O=[N+]([O-])c1ccc(Sc2nc(-c3cccnc3)nc3ccccc23)c(F)c1` [KP-76], for which, in the data set on TZM cells, the “toxicity LC50 (µM)” value is reported as “non-toxic”. The IC50 in the data set with wild type NL4.3 HIV-1 is approximately 5 µM.
The corresponding values for `O=[N+]([O-])c1cnccc1Nc1nc(-c2cccnc2)nc2ccccc12` [KP-92] are “non-toxic” and approximately 8 µM.
Regarding `O=[N+]([O-])c1ccc(Nc2cc(-c3cccnc3)nc3ccccc23)c(F)c1` [KP-94], the IC50 in the data set on wild type NL4.3 HIV-1 is approximately 5 µM.
As to `Fc1cc(Nc2nc(-c3cccnc3)nc3ccccc23)c(F)c(F)c1F` [KP-98], in the data set with TZM cells, the “toxicity LC50 (µM)” value is reported as “non-toxic”. Besides, in the data set with wild type NL4.3 HIV-1, the IC50 was approximately 15 µM.
Take `Fc1cc(F)c(Nc2nc(-c3cccnc3)nc3ccccc23)cc1Br` [KP-100]: the “toxicity LC50 (µM)” value in the data set with TZM cells is “non-toxic”.
For the compound `Fc1c(F)c(F)c(Nc2nc(-c3cccnc3)nc3ccccc23)c(F)c1F` [KP-107], the “toxicity LC50 (µM)” value in the data set on TZM cells was “non-toxic”. For the same compound, in the data set with wild type NL4.3 HIV-1, the IC50 was approximately 7 µM.
On to `c1cncc(-c2nc(Nc3ccncn3)c3ccccc3n2)c1` [KP-111], for which the “toxicity LC50 (µM)” value in the data set with TZM cells is “non-toxic”. Besides, in the data set on wild type NL4.3 HIV-1, the IC50 is approximately 18 µM.
The corresponding values for `CC(=O)OC[C@H]1O[C@@H](Sc2nc(-c3cccnc3)nc3ccccc23)[C@H](OC(C)=O)[C@@H](OC(C)=O)[C@@H]1OC(C)=O` [KP-119] are “non-toxic” and more than 25 µM.
The corresponding values for `C=Cc1ccc2nc(-c3cccnc3)nc(Nc3cc(F)c(F)c(F)c3)c2c1` [KP-130] are “non-toxic” and more than 25 µM.
In the case of `CCOP(=O)(OCC)c1cc([N+](=O)[O-])ccc1Nc1nc(-c2cccnc2)nc2ccccc12` [KP-139], in the data set on TZM cells, the “toxicity LC50 (µM)” value was “non-toxic”. In addition, in the data set on wild type NL4.3 HIV-1, the IC50 was more than 25 µM.
The corresponding values for `Fc1cc(Nc2ncnc3ccccc23)cc(F)c1F` [KP-152] are “non-toxic” and approximately 17 µM.
The corresponding values for `Fc1cc(Nc2nc(-c3ccccc3)nc3ccccc23)cc(F)c1F` [KP-153] are “non-toxic” and 10 to 15 µM.
The corresponding values for `Fc1cc(Nc2nc(-c3cncc(Br)c3)nc3ccccc23)cc(F)c1F` [KP-158 (old)] are “non-toxic” and 0.5 to 1 µM.
On to `Fc1cc(Nc2nc(-c3ccc(I)cc3)nc3ccccc23)cc(F)c1F` [KP-161], for which the “toxicity LC50 (µM)” value in the data set with TZM cells was “non-toxic”. For the same compound, the half-maximal inhibitory concentration (IC50) in the data set with wild type NL4.3 HIV-1 is approximately 10 µM.
In the case of `Fc1cccc(Nc2nc(-c3cccnc3)nc3ccccc23)c1` [KP-165], the “toxicity LC50 (µM)” value with TZM cells is recorded as “non-toxic”. Also, the IC50 in the data set on wild type NL4.3 HIV-1 was more than 10 µM.
As to `Fc1cc(Nc2nc(Cl)nc3ccccc23)cc(F)c1F` [KP-187], the “toxicity LC50 (µM)” value with TZM cells is “non-toxic”. Besides, the 50% inhibitory concentration (IC50) with wild type NL4.3 HIV-1 is more than 10 µM.
In the same order, the values of `c1cncc(-c2nc(N3CCOCC3)c3ccccc3n2)c1` [KP-190] are “non-toxic” and more than 10 µM.
For the compound `CCOC(=O)c1sc2nc(-c3cccnc3)nc(Nc3cc(F)c(F)c(F)c3)c2c1C` [KP-199], the “toxicity LC50 (µM)” value with TZM cells is listed as “non-toxic”. Further, the IC50 in the data set on wild type NL4.3 HIV-1 is more than 10 µM.
The corresponding values for `Fc1ccc(Nc2nc(-c3cccnc3)nc3ccccc23)cc1Cl` [KP-207] are “non-toxic” and more than 10 µM.
The corresponding values for `c1cncc(-c2nc(NC3CC3)c3ccccc3n2)c1` [KP-216] are “non-toxic” and more than 10 µM.
In the same order, the values of `Cc1c(CO)sc2nc(-c3cccnc3)nc(Nc3cc(F)c(F)c(F)c3)c12` [KP-233] are “non-toxic” and more than 10 µM.
In the case of `Oc1ccc2nc(-c3cccnc3)nc(Nc3cc(F)c(F)c(F)c3)c2c1` [OSR-217], the “toxicity LC50 (µM)” value in the data set with TZM cells is recorded as “non-toxic”.
As for `Oc1ccc2nc(-c3cccnc3)nc(O)c2c1` [OSR-243], in the data set on TZM cells, the “toxicity LC50 (µM)” value is given as “non-toxic”.

Values taken from patent publication EP2769723A1, “Compounds for use in inhibiting HIV capsid assembly” (priority 2013, dated 2014).
